Assay results reported in ChEMBL document CHEMBL1201862, “PubChem BioAssay data set” (2004).
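Briefly, cells in 96-well plates were exposed to five compound concentrations for 48 h, and endpoints were estimated by linear interpolation. Here, GI50 denotes the concentration required for 50% inhibition of growth.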 Active and inactive are the calls of the source. Rule as the data show it: active = GI50 up to about 1.1 µM and inactive = higher.

Experiments:
Experiment in all cases: NCI-60 cell line screen, 48 h
UACC-257 = tested on: UACC-257
COLO 205 = tested on: COLO 205
SK-MEL-2 = tested on: SK-MEL-2
NCI-H460 = tested on: NCI-H460
OVCAR-5 = tested on: OVCAR-5
HCT-15 = tested on: HCT-15
M14 = tested on: M14
SR = tested on: SR
EKVX = tested on: EKVX
HCC 2998 = tested on: HCC 2998
LXFL 529 = tested on: LXFL 529
M19-MEL = tested on: M19-MEL
A549 = tested on: A549
RXF 631 = tested on: RXF 631
U-251 = tested on: U-251
ACHN = tested on: ACHN
OVCAR-4 = tested on: OVCAR-4
HOP-18 = tested on: HOP-18
DMS-114 = tested on: DMS-114
HCT-116 = tested on: HCT-116
MOLT-4 = tested on: MOLT-4
HOP-62 = tested on: HOP-62
Malme-3M = tested on: Malme-3M
HL-60 = tested on: HL-60
DMS-273 = tested on: DMS-273
OVCAR-3 = tested on: OVCAR-3
NCI-H226 = tested on: NCI-H226
OVCAR-8 = tested on: OVCAR-8
SK-MEL-5 = tested on: SK-MEL-5
NCI-H23 = tested on: NCI-H23
SF-295 = tested on: SF-295
SN12C = tested on: SN12C
XF498 = tested on: XF498
UACC-62 = tested on: UACC-62
HOP-92 = tested on: HOP-92
CCRF-CEM = tested on: CCRF-CEM
HT-29 = tested on: HT-29
SK-OV-3 = tested on: SK-OV-3
DLD-1 = tested on: DLD-1
UO-31 = tested on: UO-31
NCI-H522 = tested on: NCI-H522
SNB-75 = tested on: SNB-75
SNB-78 = tested on: SNB-78
RXF 393 = tested on: RXF 393
A498 = tested on: A498
SW-620 = tested on: SW-620
SF-539 = tested on: SF-539
KM12 = tested on: KM12
786-0 = tested on: 786-0
KM-20L2 = tested on: KM-20L2
LOX IMVI = tested on: LOX IMVI
RPMI-8226 = tested on: RPMI-8226
SK-MEL-28 = tested on: SK-MEL-28
K562 = tested on: K562
CAKI-1 = tested on: CAKI-1
SNB-19 = tested on: SNB-19
SF-268 = tested on: SF-268
IGROV-1 = tested on: IGROV-1
TK-10 = tested on: TK-10

Q: For `CC1NOC(=O)C1/N=N/c1ccccc1Br` (stereo unspecified), which GI50 (UACC-257) is on record?
A: 24 µM (inactive)

Q: What about the GI50 (COLO 205) of the same molecule?
A: 20.6 µM (inactive)

Q: What about the GI50 (SK-MEL-2) of the same molecule?
A: 16.2 µM (inactive)

Q: And the GI50 (NCI-H460)?
A: 21.7 µM (inactive)

Q: What about the GI50 (OVCAR-5) of the same molecule?
A: 40.7 µM (inactive)

Q: What about the GI50 (HCT-15) of the same molecule?
A: 28.4 µM

Q: What about the GI50 (M14) of the same molecule?
A: 21.4 µM (inactive)

Q: And the GI50 (SR)?
A: 25.1 µM (inactive)

Q: What about the GI50 (EKVX) of the same molecule?
A: 34.2 µM (inactive)

Q: What about the GI50 (HCC 2998) of the same molecule?
A: 41.2 µM (inactive)

Q: And the GI50 (LXFL 529)?
A: 15.7 µM (inactive)

Q: And the GI50 (M19-MEL)?
A: 19 µM (inactive)

Q: And the GI50 (A549)?
A: 24.2 µM (inactive)

Q: And the GI50 (RXF 631)?
A: 31.3 µM (inactive)

Q: And the GI50 (U-251)?
A: 22.4 µM (inactive)

Q: What about the GI50 (ACHN) of the same molecule?
A: 35.3 µM (inactive)

Q: And the GI50 (OVCAR-4)?
A: 39.3 µM (inactive)

Q: And the GI50 (HOP-18)?
A: 26.5 µM (inactive)

Q: What about the GI50 (DMS-114) of the same molecule?
A: 18.9 µM (inactive)

Q: And the GI50 (HCT-116)?
A: 32.5 µM (inactive)

Q: And the GI50 (MOLT-4)?
A: 29 µM (inactive)

Q: And the GI50 (HOP-62)?
A: 43.9 µM (inactive)

Q: And the GI50 (Malme-3M)?
A: 26.2 µM (inactive)

Q: What about the GI50 (HL-60) of the same molecule?
A: 18.9 µM (inactive)

Q: And the GI50 (DMS-273)?
A: 31.6 µM (inactive)

Q: And the GI50 (OVCAR-3)?
A: 20.5 µM (inactive)

Q: What about the GI50 (NCI-H226) of the same molecule?
A: 31.6 µM (inactive)

Q: And the GI50 (OVCAR-8)?
A: 22 µM (inactive)

Q: What about the GI50 (SK-MEL-5) of the same molecule?
A: 15.3 µM (inactive)

Q: What about the GI50 (NCI-H23) of the same molecule?
A: 22.6 µM (inactive)

Q: What about the GI50 (SF-295) of the same molecule?
A: 40.7 µM (inactive)

Q: What about the GI50 (SN12C) of the same molecule?
A: 24.5 µM (inactive)

Q: What about the GI50 (XF498) of the same molecule?
A: 20.3 µM (inactive)

Q: What about the GI50 (UACC-62) of the same molecule?
A: 19.9 µM (inactive)

Q: And the GI50 (HOP-92)?
A: 24 µM (inactive)

Q: And the GI50 (CCRF-CEM)?
A: 25.8 µM (inactive)

Q: What about the GI50 (HT-29) of the same molecule?
A: 39.6 µM (inactive)

Q: What about the GI50 (SK-OV-3) of the same molecule?
A: 38.1 µM (inactive)

Q: And the GI50 (DLD-1)?
A: 31.6 µM (inactive)

Q: What about the GI50 (UO-31) of the same molecule?
A: 18.6 µM (inactive)

Q: What about the GI50 (NCI-H522) of the same molecule?
A: 18.5 µM (inactive)

Q: And the GI50 (SNB-75)?
A: 31.4 µM (inactive)

Q: And the GI50 (SNB-78)?
A: 26.5 µM (inactive)

Q: What about the GI50 (RXF 393) of the same molecule?
A: 13.9 µM (inactive)

Q: What about the GI50 (A498) of the same molecule?
A: 26.8 µM (inactive)

Q: What about the GI50 (SW-620) of the same molecule?
A: 13.8 µM (inactive)

Q: What about the GI50 (SF-539) of the same molecule?
A: 22.3 µM (inactive)

Q: What about the GI50 (KM12) of the same molecule?
A: 21.2 µM (inactive)

Q: What about the GI50 (786-0) of the same molecule?
A: 17.5 µM (inactive)

Q: What about the GI50 (KM-20L2) of the same molecule?
A: 38.3 µM (inactive)

Q: And the GI50 (LOX IMVI)?
A: 23.9 µM (inactive)

Q: And the GI50 (RPMI-8226)?
A: 28.8 µM (inactive)

Q: What about the GI50 (SK-MEL-28) of the same molecule?
A: 31 µM (inactive)

Q: What about the GI50 (K562) of the same molecule?
A: 22.9 µM (inactive)

Q: What about the GI50 (CAKI-1) of the same molecule?
A: 16.8 µM (inactive)

Q: And the GI50 (SNB-19)?
A: 37.4 µM (inactive)

Q: And the GI50 (SF-268)?
A: 28.4 µM (inactive)

Q: And the GI50 (IGROV-1)?
A: 36 µM (inactive)

Q: What about the GI50 (TK-10) of the same molecule?
A: 24.5 µM (inactive)

Q: For `N#CC1=C(Cl)NC(Cl)=C(C#N)C1c1ccc(Cl)cc1`, which GI50 (UACC-257) is on record?
A: 18.3 µM (inactive)

Q: What about the GI50 (COLO 205) of the same molecule?
A: 16.5 µM (inactive)

Q: And the GI50 (SK-MEL-2)?
A: 13.9 µM (inactive)

Q: And the GI50 (NCI-H460)?
A: 17 µM (inactive)

Q: What about the GI50 (OVCAR-5) of the same molecule?
A: 34 µM (inactive)

Q: And the GI50 (HCT-15)?
A: 15.4 µM

Q: What about the GI50 (M14) of the same molecule?
A: 16.8 µM (inactive)

Q: And the GI50 (SR)?
A: 21.7 µM (inactive)

Q: And the GI50 (EKVX)?
A: 19.5 µM (inactive)

Q: What about the GI50 (HCC 2998) of the same molecule?
A: 19.1 µM (inactive)

Q: And the GI50 (LXFL 529)?
A: 16.4 µM (inactive)

Q: What about the GI50 (A549) of the same molecule?
A: 22.1 µM (inactive)

Q: And the GI50 (RXF 631)?
A: 13 µM (inactive)

Q: And the GI50 (U-251)?
A: 16.3 µM (inactive)

Q: And the GI50 (ACHN)?
A: 17.7 µM (inactive)

Q: What about the GI50 (HOP-18) of the same molecule?
A: 17.6 µM (inactive)

Q: And the GI50 (DMS-114)?
A: 15.2 µM (inactive)

Q: And the GI50 (HCT-116)?
A: 20.2 µM (inactive)

Q: And the GI50 (MOLT-4)?
A: 18.7 µM (inactive)

Q: And the GI50 (HOP-62)?
A: 18.1 µM (inactive)

Q: What about the GI50 (Malme-3M) of the same molecule?
A: 21.3 µM (inactive)

Q: And the GI50 (HL-60)?
A: 18.5 µM (inactive)

Q: And the GI50 (DMS-273)?
A: 17.1 µM (inactive)

Q: What about the GI50 (OVCAR-3) of the same molecule?
A: 14 µM (inactive)

Q: What about the GI50 (NCI-H226) of the same molecule?
A: 20.5 µM (inactive)

Q: And the GI50 (OVCAR-8)?
A: 16.2 µM (inactive)

Q: What about the GI50 (SK-MEL-5) of the same molecule?
A: 17 µM (inactive)

Q: And the GI50 (NCI-H23)?
A: 17.9 µM (inactive)

Q: And the GI50 (SF-295)?
A: 27.2 µM (inactive)

Q: And the GI50 (SN12C)?
A: 16.9 µM (inactive)

Q: And the GI50 (XF498)?
A: 14.1 µM (inactive)

Q: What about the GI50 (UACC-62) of the same molecule?
A: 16.7 µM (inactive)

Q: What about the GI50 (HOP-92) of the same molecule?
A: 15.2 µM (inactive)

Q: What about the GI50 (CCRF-CEM) of the same molecule?
A: 25 µM (inactive)

Q: And the GI50 (HT-29)?
A: 16 µM (inactive)

Q: What about the GI50 (SK-OV-3) of the same molecule?
A: 17.2 µM (inactive)

Q: What about the GI50 (DLD-1) of the same molecule?
A: 17.7 µM (inactive)

Q: What about the GI50 (UO-31) of the same molecule?
A: 17 µM (inactive)

Q: And the GI50 (NCI-H522)?
A: 13 µM (inactive)

Q: What about the GI50 (SNB-75) of the same molecule?
A: 14.9 µM (inactive)

Q: And the GI50 (SNB-78)?
A: 25.9 µM (inactive)

Q: What about the GI50 (RXF 393) of the same molecule?
A: 17.1 µM (inactive)

Q: What about the GI50 (A498) of the same molecule?
A: 32.4 µM (inactive)

Q: And the GI50 (SW-620)?
A: 13.5 µM (inactive)

Q: And the GI50 (SF-539)?
A: 18.1 µM (inactive)

Q: What about the GI50 (KM12) of the same molecule?
A: 17.6 µM (inactive)

Q: And the GI50 (786-0)?
A: 15.8 µM (inactive)

Q: And the GI50 (KM-20L2)?
A: 24.6 µM (inactive)

Q: And the GI50 (LOX IMVI)?
A: 16.1 µM (inactive)

Q: What about the GI50 (RPMI-8226) of the same molecule?
A: 17.5 µM (inactive)

Q: What about the GI50 (SK-MEL-28) of the same molecule?
A: 22.9 µM (inactive)

Q: What about the GI50 (K562) of the same molecule?
A: 11.9 µM (inactive)

Q: What about the GI50 (CAKI-1) of the same molecule?
A: 17.9 µM (inactive)

Q: And the GI50 (SNB-19)?
A: 16.6 µM (inactive)

Q: What about the GI50 (SF-268) of the same molecule?
A: 18.7 µM (inactive)

Q: And the GI50 (IGROV-1)?
A: 18.2 µM (inactive)

Q: What about the GI50 (TK-10) of the same molecule?
A: 18 µM (inactive)
